The source made the active and inactive calls. The calls are words filed in the database; no cut-off is given here.
Experiments:
[1] = biological target: T1, Tryptophan 5-hydroxylase 1 (Homo sapiens) (UniProt P17752); test: Inhibition of TPH1 ( unknown origin ) at 1 uM relative to control
T1 sequence (whole entry): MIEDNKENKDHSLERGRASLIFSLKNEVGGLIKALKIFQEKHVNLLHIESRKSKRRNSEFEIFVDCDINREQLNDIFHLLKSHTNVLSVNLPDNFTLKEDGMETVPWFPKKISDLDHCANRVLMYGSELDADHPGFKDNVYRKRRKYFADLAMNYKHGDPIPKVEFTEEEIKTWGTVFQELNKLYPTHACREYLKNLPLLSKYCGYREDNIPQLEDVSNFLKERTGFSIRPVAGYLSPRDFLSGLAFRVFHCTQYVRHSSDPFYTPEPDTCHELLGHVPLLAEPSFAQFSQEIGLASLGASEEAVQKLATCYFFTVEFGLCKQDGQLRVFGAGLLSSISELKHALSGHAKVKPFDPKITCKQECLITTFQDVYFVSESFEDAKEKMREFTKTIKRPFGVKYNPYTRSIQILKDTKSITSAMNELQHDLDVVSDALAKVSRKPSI

[2] = biological target: T2, Tryptophan 5-hydroxylase 1 (Homo sapiens, UniProt P17752); test: Inhibition of TPH1 ( unknown origin )
T2 sequence (P17752 whole entry): T1 sequence (whole entry)

[3] = Stability in human liver microsomes assessed as compound remaining measured after 30 mins; assay type: ADME, Microsome; details: read-out: Stability
[4] = Stability in mouse liver microsomes assessed as compound remaining measured after 30 mins; assay type: ADME, Microsome; details: read-out: Stability
[5] = biological target: T3, Tryptophan 5-hydroxylase 1 (Mus musculus) (UniProt P17532); test: Inhibition of TPH1 in mouse 3T3-L1 cells assessed as suppression of insulin-induced adipocyte differentiation by measuring reduction in lipid droplet accumulation at 1 to 2 uM measured on day 7 post-adipogenesis induction by oil red O staining based phase-contrast light microscopy; assay type: cell-based; details: dose 1-2 µM, time 7.0 day
T3 sequence (whole entry): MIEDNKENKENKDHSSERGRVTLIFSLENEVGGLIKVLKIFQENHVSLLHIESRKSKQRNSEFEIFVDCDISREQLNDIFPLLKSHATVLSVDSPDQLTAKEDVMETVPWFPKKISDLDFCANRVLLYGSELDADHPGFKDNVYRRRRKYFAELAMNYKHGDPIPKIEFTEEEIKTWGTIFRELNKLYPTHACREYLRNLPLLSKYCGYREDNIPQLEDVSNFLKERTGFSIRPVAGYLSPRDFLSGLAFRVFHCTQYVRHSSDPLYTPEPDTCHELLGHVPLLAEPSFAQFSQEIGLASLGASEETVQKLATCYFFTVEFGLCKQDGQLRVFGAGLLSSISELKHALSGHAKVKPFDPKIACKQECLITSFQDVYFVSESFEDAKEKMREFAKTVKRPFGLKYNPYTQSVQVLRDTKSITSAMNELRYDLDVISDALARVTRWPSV

[6] = biological target: T3, Tryptophan 5-hydroxylase 1 (Mus musculus); test: Inhibition of TPH1 in mouse 3T3-L1 cells assessed as suppression of insulin-induced adipocyte differentiation by measuring reduction in lipid droplet accumulation at 1 to 2 uM measured on day 7 post-adipogenesis induction by oil red O staining based spectrophotometry; assay type: cell-based; details: dose 1-2 µM, time 7.0 day

SMILES | inhibition [1] [%] | also measured
CCn1c(=O)[nH]c(=O)c2c1nc(Cc1cn3ccsc3n1)n2CC(=O)Nc1ccc(OC)cc1 | 4.1 | 
CCn1c(=O)[nH]c(=O)c2c1nc(Cc1cn3ccsc3n1)n2CC(=O)c1ccc(N)cc1 | 87.8 | IC50 [2]: 168 nM; remaining at 0.5 h [3]: 95.3%; remaining at 0.5 h [4]: 80.8%
CCn1c(=O)[nH]c(=O)c2c1nc(C)n2Cc1ccccc1 | 0 | 
CCn1c(=O)[nH]c(=O)c2c1nc(Cc1cn3ccsc3n1)n2CC(=O)c1ccc(-c2ccccc2)cc1 | 32.6 | 
CCn1c(=O)[nH]c(=O)c2c1nc(Cc1cn3ccsc3n1)n2CC(=O)c1ccccc1 | 39.4 | 
CCn1c(=O)[nH]c(=O)c2c1nc(Cc1cn3ccsc3n1)n2CC(=O)c1ccc(CO)cc1 | 83 | IC50 [2]: 277 nM; remaining at 0.5 h [3]: 91.5%; remaining at 0.5 h [4]: 85.2%
CCn1c(=O)[nH]c(=O)c2c1nc(Cc1cn3ccsc3n1)n2CC(O)c1ccc(Cl)cc1 (centres undefined) | 0 | 
CCn1c(=O)[nH]c(=O)c2c1nc(Cc1cn3ccsc3n1)n2CC(=O)c1cccc(OC)c1 | 38.9 | 
CCn1c(=O)[nH]c(=O)c2c1nc(Cc1cn3ccsc3n1)n2C/C(=N/O)c1ccc(OC)cc1 | 25.5 | 
CCn1c(=O)[nH]c(=O)c2c1nc(Cn1cnc3ccccc31)n2Cc1ccccc1 | 0 | 
CCn1c(=O)[nH]c(=O)c2c1nc(Cn1ccnc1)n2Cc1ccccc1 | 0 | 
CCn1c(=O)[nH]c(=O)c2c1nc(Cc1cn3ccsc3n1)n2CC(=O)c1ccc(C(F)(F)F)cc1 | 47.5 | 
CCn1c(=O)[nH]c(=O)c2c1nc(Cc1cn3ccsc3n1)n2CC(=O)c1ccc(F)cc1 | 62.6 | 
CCn1c(=O)[nH]c(=O)c2c1nc(Cc1cn3ccsc3n1)n2CC(=O)c1ccc(Cl)cc1 | 66 | 
CCn1c(=O)[nH]c(=O)c2c1nc(Cc1cn3ccsc3n1)n2CC(=O)c1ccc(OC(C)=O)cc1 | 80.8 | 
CCn1c(=O)[nH]c(=O)c2c1nc(Cc1cn3ccsc3n1)n2Cc1ccccc1 | 48.6 | IC50 [2]: 1160 nM
CCn1c(=O)[nH]c(=O)c2[nH]c(Cc3cn4ccsc4n3)nc21 | 10.2 | 
CCn1c(=O)[nH]c(=O)c2c1nc(Cc1cn3ccsc3n1)n2CC(=O)c1ccc(Br)cc1 | 47.2 | 
CCn1c(=O)[nH]c(=O)c2c1nc(Cc1cn3ccsc3n1)n2CC(=O)c1ccc(O)cc1 | 94.3 | inhibition [5]: Active; inhibition [6]: Active; IC50 [2]: 110 nM; remaining at 0.5 h [3]: 80.4%; remaining at 0.5 h [4]: 77.3%
CCn1c(=O)[nH]c(=O)c2c1nc(Cc1cn3ccsc3n1)n2CC(=O)c1ccc(N=[N+]=[N-])cc1 | 87.9 | 
CCn1c(=O)[nH]c(=O)c2c1nc(Cc1cn3ccsc3n1)n2CC(=O)c1ccccc1OC | 0.3 | 
CCn1c(=O)[nH]c(=O)c2c1nc(Cc1cn3ccsc3n1)n2CC(=O)c1ccc(OC)cc1 | 91.4 | IC50 [2]: 182 nM; remaining at 0.5 h [3]: 69%; remaining at 0.5 h [4]: 30%
CCn1c(=O)n(Cc2ccccc2)c(=O)c2c1nc(Cc1cn3ccsc3n1)n2Cc1ccccc1 | 6.2 | 
CCn1c(=O)[nH]c(=O)c2c1nc(Cc1ccccc1)n2Cc1ccccc1 | 0 | 
